This assay has as its target T1, Cyclin E/CDK2 (Homo sapiens, UniProt P24941).
T1 construct: made in house; host or cells: SF9 insect cells, baculovirus co-infection
As to the kind of experiment: In vitro cyclin E/CDK2 kinase assay (33P-ATP, SPA beads), IC50 determination. It counts as biochemical.

As a reminder, the IC50 is the concentration at which inhibition is half-maximal. A low value points to greater potency in that assay.

The molecule `Cn1cc(-c2cnn3c(Nc4ccc(-n5ccnc5)cc4)cc(C4CCCNC4)nc23)cn1` (stereo not shown) [Example 90-C] returned an IC50 of 200 nM.

For the origin of these results see patent US7601724B2, “Substituted pyrazolo[1,5-a]pyrimidines as protein kinase inhibitors” (Schering Corporation, priority 2002, dated 2009).
